From patent US20260234099A1, “Endocannabinoid ligands and related analogs” (Northeastern University, priority 2023, published 2026) come the findings set out here.

Where two headings read alike, the source gives them in different places.

Experiment [1] has as its target T1, CB1 receptor (Rattus norvegicus, UniProt P20272). The experiment can be described thus: GTPγ-S binding assay, CB1. It counts as biochemical. To be noted: class symbols; read-out: EC50 (GTP) CB1 receptor. As to the method: The activity of some of the disclosed compounds for the CB1 and CB2 receptors was assessed by using the GTPγ-S binding assay (Tables 2,3,4). As used herein the “effect” of the compound on the GTPγ-S assay is represented by the EC50 (GTP) value. […] Med. Chem. Letters 2006, 16(9), 2437 and Griffin, et al., J. Pharmacol. Exp. Ther. 1998, 285(2), 553-560 the content of which is hereby incorporated by reference.

Experiment [2] addresses T2, CB2 receptor (Homo sapiens, UniProt P34972). Put plainly: GTPγ-S binding assay, CB2. It counts as biochemical. The protocol:
The activity of some of the disclosed compounds for the CB1 and CB2 receptors was assessed by using the GTPγ-S binding assay (Tables 2,3,4). As used herein the “effect” of the compound on the GTPγ-S assay is represented by the EC50 (GTP) value. The lower the EC50 (GTP) value the higher the potency of the compound for the receptor A detailed description of the methods used to test compounds using the GTPγ-S assay is given in Parkkari, et al., Biorg. Med. Chem. Letters 2006, 16(9), 2437 and Griffin, et al., J. Pharmacol. Exp. Ther. 1998, 285(2), 553-560 the content of which is hereby incorporated by reference.
(GTPγS resists hydrolysis and so accumulates on activated G proteins.)

Experiment [3] addresses T2, CB2 receptor. The experiment can be described thus: hCB2 receptor binding affinity (Ki), Table 7. As to the method: Some disclosed compounds were tested for CB1 and CB2 receptor binding affinity (Tables 1, 2, 3, 4, 5). As used herein “binding affinity” is represented by the Ki value. The Ki value is the affinity constant and describes the affinity of the compound for the receptor. The lower the Ki value, the higher the affinity of the compound for the receptor. A detailed description of the methods used to test “binding affinity” of compounds is given in Makriyannis, et al., US 2007/0135388 the content of which is hereby incorporated by reference.

Another experiment has as its target CB2 receptor (hCB2) (Homo sapiens, UniProt P34972). The experiment can be described thus: cAMP assay (inhibition of FSK stimulated cAMP), CB2. It counts as cell-based. The protocol:
FIG. 2A is a graph providing data of the % inhibition of FSK stimulated cAMP for compound 6.1.1 for hCB2.
Further functional characterization of some of the disclosed compounds tested initially for “binding affinity” or for GTPγ-S binding was performed by using the cyclic adenosine monophosphate (cAMP) assay. Key compounds initially characterized functionally using the GTPγ-S assay were also doubly tested using the cAMP assay to unambiguously confirm their functional profiles. The functional potency of the compounds tested using the cyclase assay is also represented by the EC50 (cAMP) value and similarly the lower the EC50 (cAMP) value the higher the potency of the compound for the receptor. A detailed description of the methods used to test compounds using the cAMP assay is given in Yingpeng, et al. J. Med. Chem. (2018) 61, 8639-8657 the content of which is hereby incorporated by reference. The EC50 values (potency of a test compound) of the functional assays may or may not be accompanied by the E(max) value in tables 1-5 (efficacy of the test compound). E(max)/efficacy is the maximum GTP stimulation or cAMP inhibition levels and is presented as the percentage of maximum response evoked by a standard CB1/CB2 full agonist (e.g., CP-55,940) for reference see the paper cited above. If a test compound has an efficacy close to 100% of the standard full agonist, then the test compound is also classified as full agonist.

Experiment [4] has as its target T1, CB1 receptor. The experiment can be described thus: CB1 receptor binding affinity (Ki). The note with it: without PMSF; read-out: CB1 receptor affinity Ki. The protocol: (§1) Some disclosed compounds were tested for CB1 and CB2 receptor binding affinity (Tables 1, 2, 3, 4, 5). As used herein “binding affinity” is represented by the Ki value. The Ki value is the affinity constant and describes the affinity of the compound for the receptor. […] A detailed description of the methods used to test “binding affinity” of compounds is given in Makriyannis, et al., US 2007/0135388 the content of which is hereby incorporated by reference.

Experiment [5] deals with T2, CB2 receptor. The experiment can be described thus: CB2 receptor binding affinity (Ki). Also noted: CB2 receptor Ki. The protocol: as §1

T2 sequence (P34972 whole entry): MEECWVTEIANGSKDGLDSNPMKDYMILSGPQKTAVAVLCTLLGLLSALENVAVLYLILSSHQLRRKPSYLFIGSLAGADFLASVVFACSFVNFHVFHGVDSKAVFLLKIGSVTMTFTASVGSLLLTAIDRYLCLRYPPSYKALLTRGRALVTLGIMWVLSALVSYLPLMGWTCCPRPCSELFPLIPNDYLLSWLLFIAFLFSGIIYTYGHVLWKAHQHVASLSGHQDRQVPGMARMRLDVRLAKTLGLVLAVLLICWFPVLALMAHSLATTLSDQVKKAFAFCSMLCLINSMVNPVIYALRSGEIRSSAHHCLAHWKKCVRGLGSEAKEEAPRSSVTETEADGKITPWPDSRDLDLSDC
CB2 receptor (hCB2), sequence (P34972 whole entry): as above
T1 sequence (P20272 whole entry): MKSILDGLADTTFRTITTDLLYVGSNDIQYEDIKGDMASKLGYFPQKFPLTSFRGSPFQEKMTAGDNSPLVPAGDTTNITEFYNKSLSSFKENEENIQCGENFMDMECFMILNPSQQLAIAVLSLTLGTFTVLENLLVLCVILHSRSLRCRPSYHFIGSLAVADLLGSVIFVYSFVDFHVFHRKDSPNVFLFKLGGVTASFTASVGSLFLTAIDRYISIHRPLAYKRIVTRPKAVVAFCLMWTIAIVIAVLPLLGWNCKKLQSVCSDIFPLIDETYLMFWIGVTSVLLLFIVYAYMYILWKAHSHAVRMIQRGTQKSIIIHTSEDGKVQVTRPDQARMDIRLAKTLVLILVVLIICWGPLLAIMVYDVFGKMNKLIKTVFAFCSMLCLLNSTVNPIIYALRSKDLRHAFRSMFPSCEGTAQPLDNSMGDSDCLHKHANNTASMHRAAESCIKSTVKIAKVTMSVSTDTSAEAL

On to `CCCCC/C=C\C/C=C\C/C=C\[C@H](C)/C=C\CCCC(=O)OC(CO)CO` [Compound 5.4.3a, 1,3-Dihydroxypropan-2-yl (R,5Z,8Z,11Z,14Z)-7-methylicosa-5,8,11,14-tetraenoate], for which the EC50 on CB1 receptor [1] is more than 1000 nM; at CB2 receptor [2], 200 to 1000 nM.

On CB2 receptor [3], `C[C@H](/C=C\C/C=C\C/C=C\CCCC(=O)N[C@H](C)CO)/C=C\CCCCC(F)(F)F` [Compound 4.1.5c] gave a Ki of 3.6 nM. Besides, the “fold higher binding affinity for CB2 compared to AM 356” value on CB2 receptor [3] (vs AM 356) was 61 fold. Besides, the “fold higher binding affinity for CB2 compared to AMG 315” value at CB2 receptor [3] (vs AMG 315) stood at 49 fold.

As to `CCCCC/C=C\C/C=C\C/C=C\[C@@H](C)/C=C\CCCC(=O)OC(CO)CO` [Compound 5.4.3b, 1,3-Dihydroxypropan-2-yl (S,5Z,8Z,11Z,14Z)-7-methylicosa-5,8,11,14-tetraenoate], the EC50 on CB1 receptor [1] and on CB2 receptor [2] was more than 1000 nM each time.

As to `CCCCC/C=C\C/C=C\C/C=C\C/C=C\C1CC[C@@H](C(=O)OC(CO)CO)C1` (stereo partly shown) [Compound 5.2.2e], the EC50 on CB2 receptor (hCB2) (class symbols) was 200 to 1000 nM; on CB1 receptor [1] it was more than 1000 nM.

For the compound `CCCCC/C=C\[C@H](C)/C=C\C/C=C\C/C=C\CCCCNC(=O)COC` [Compound 6.1.1, 2-Methoxy-N—((S,5Z,8Z,11Z,14Z)-13-methylicosa-5,8,11,14-tetraen-1-yl)acetamide], the Ki on CB1 receptor [4] and at CB2 receptor [5] was 0.01 to 10 nM in each case. Further, the “functional profile at CB2 (cAMP)” value on CB2 receptor (hCB2) (full or partial agonist) is on record as “partial agonist”. The EC50 on CB2 receptor (hCB2) (numeric) came out at 1.2 nM. The compound also gave an Emax at CB2 receptor (hCB2) (percentage of maximum response of standard full agonist (e.g., CP-55,940)) of 40%.

As to `CCCCC/C=C\C/C=C\C/C=C\C/C=C\CCCC(=O)OC(CO)CO` [Compound 2-AG, 2-arachidonoylglycerol, reference compound], the EC50 at CB2 receptor (hCB2) (class symbols) lay in the range of 10 to 200 nM; on CB2 receptor [2] (class symbols, read-out: EC50 (GTP) CB2 receptor), 200 to 1000 nM.

As a reminder, the EC50 is the concentration giving half of the maximal effect. Usually Ki stands for the equilibrium dissociation constant of an inhibitor or competing ligand from its target. Usually Emax stands for the greatest response seen or fitted, relative to the assay's reference.
